Test results taken from patent publication US20110319411A1, “ISOINDOLINONE AND RELATED ANALOGS AS SIRTUIN MODULATORS” (Sirtis Pharmaceuticals, Inc., priority 2008, published 2011).

Target: T1, SIRT1 (Homo sapiens, UniProt Q96EB6)
T1 construct: made in house; host or cells: E. coli BL21(DE3)
T1 sequence (Q96EB6 1-747): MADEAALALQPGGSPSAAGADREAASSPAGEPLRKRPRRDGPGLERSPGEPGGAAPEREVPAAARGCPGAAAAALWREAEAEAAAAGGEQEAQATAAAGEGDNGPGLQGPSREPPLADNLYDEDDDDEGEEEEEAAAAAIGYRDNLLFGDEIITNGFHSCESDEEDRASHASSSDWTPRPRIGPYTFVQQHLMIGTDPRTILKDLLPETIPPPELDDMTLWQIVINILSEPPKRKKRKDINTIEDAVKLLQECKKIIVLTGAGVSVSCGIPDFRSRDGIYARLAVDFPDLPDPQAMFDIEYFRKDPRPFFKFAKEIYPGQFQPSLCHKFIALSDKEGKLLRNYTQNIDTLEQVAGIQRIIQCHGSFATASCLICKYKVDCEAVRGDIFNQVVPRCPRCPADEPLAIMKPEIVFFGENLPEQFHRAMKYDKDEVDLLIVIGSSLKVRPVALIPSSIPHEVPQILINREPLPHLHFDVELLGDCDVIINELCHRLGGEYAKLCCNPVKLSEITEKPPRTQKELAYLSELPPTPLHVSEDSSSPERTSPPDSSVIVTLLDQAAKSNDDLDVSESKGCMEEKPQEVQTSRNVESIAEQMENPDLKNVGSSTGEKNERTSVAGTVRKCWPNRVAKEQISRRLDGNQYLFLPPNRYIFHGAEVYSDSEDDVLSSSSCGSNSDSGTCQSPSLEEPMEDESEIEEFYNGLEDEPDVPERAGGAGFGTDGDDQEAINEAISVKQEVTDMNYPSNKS
Assay: mass spectrometry based assay to identify modulators of SIRT1 activity
Format: biochemical
Conditions: 10 nM SIRT1, 0.5 μM peptide substrate, 120 μM βNAD+, 25 minutes at 25° C.; for Emax: 25 min, read-out: % FOLD ACT. (percent maximum fold activation)
From the text: A mass spectrometry based assay was used to identify modulators of SIRT1 activity. The mass spectrometry based assay utilizes a peptide having 20 amino acid residues as follows: Ac-EE-K(biotin)-GQSTSSHSK(Ac)NleSTEG-K(5TMR)-EE-NH2 (SEQ ID NO: 1) wherein K(Ac) is an acetylated lysine residue and Nle is a norleucine. The peptide is labeled with the fluorophore 5TMR (excitation 540 nm/emission 580 nm) at the C-terminus. The sequence of the peptide substrate is based on p53 with several modifications. In addition, the methionine residue naturally present in the sequence was replaced with the norleucine because the methionine may be susceptible to oxidation during synthesis and purification.
The mass spectrometry assay is conducted as follows: 0.5 μM peptide substrate and 120 μM βNAD^+ is incubated with 10 nM SIRT1 for 25 minutes at 25° C. in a reaction buffer (50 mM Tris-acetate pH 8, 137 mM NaCl, 2.7 mM KCl, 1 mM MgCl2, 5 mM DTT, 0.05% BSA). Test compounds may be added to the reaction as described above. The SirT1 gene is cloned into a T7-promoter containing vector and transformed into BL21(DE3). After the 25 minute incubation with SIRT1, 10 μL of 10% formic acid is added to stop the reaction. Reactions are sealed and frozen for later mass spec analysis. Determination of the mass of the substrate peptide allows for precise determination of the degree of acetylation (i.e. starting material) as compared to deacetylated peptide (product).
A control for inhibition of sirtuin activity is conducted by adding 1 μL of 500 mM nicotinamide as a negative control at the start of the reaction (e.g., permits determination of maximum sirtuin inhibition). A control for activation of sirtuin activity is conducted using 10 nM of sirtuin protein, with 1 μL of DMSO in place of compound, to determine the amount of deacetylation of the substrate at a given timepoint within the linear range of the assay. This timepoint is the same as that used for test compounds and, within the linear range, the endpoint represents a change in velocity.
For the above assay, SIRT1 protein was expressed and purified as follows. The SirT1 gene was cloned into a T7-promoter containing vector and transformed into BL21(DE3). The protein was expressed by induction with 1 mM IPTG as an N-terminal His-tag fusion protein at 18° C. overnight and harvested at 30,000×g. Cells were lysed with lysozyme in lysis buffer (50 mM Tris-HCl, 2 mM Tris[2-carboxyethyl]phosphine (TCEP), 10 μM ZnCl2, 200 mM NaCl) and further treated with sonication for 10 min for complete lysis. The protein was purified over a Ni-NTA column (Amersham) and fractions containing pure protein were pooled, concentrated and run over a sizing column (Sephadex S200 26/60 global). The peak containing soluble protein was collected and run on an Ion-exchange column (MonoQ). Gradient elution (200 mM-500 mM NaCl) yielded pure protein. This protein was concentrated and dialyzed against dialysis buffer (20 mM Tris-HCl, 2 mM TCEP) overnight. The protein was aliquoted and frozen at −80° C. until further use.
Sirtuin modulating compounds that activated SIRT1 were identified using the assay described above and are shown below in Table 1. The EC1.5 values represent the concentration of test compounds that result in 150% activation of SIRT1. The EC1.5 values for the activating compounds are represented by A (EC1.5<10 μM), B (EC1-5 10-25 μM), C (EC1.5>25 μM). The percent maximum fold activation is represented by A (Fold activation >200%) or B (Fold Activation <200%).

| EC1.5 (concentration of test compound that results in 150% activation of SIRT1) | Emax | SMILES |
| --- | --- | --- |
| C (EC1.5>25 μM) | < 200% | O=C(Cc1cccnc1)Nc1cccc2c1C(=O)N(c1cccc(OC3CCNCC3)c1)C2 [Compound 102, N-(3-oxo-2-(3-(piperidin-4-yloxy)phenyl)isoindolin-4-yl)-2-(pyridin-3-yl)acetamide] |
| C (EC1.5>25 μM) | < 200% | Cc1ccc(N2Cc3cccc(NC(=O)Cc4cccnc4)c3C2=O)cc1 [Compound 117] |
| C (EC1.5>25 μM) | < 200% | O=C(Cc1cccnc1)Nc1cccc2c1C(=O)N(c1cccc(OC(F)(F)F)c1)C2 [Compound 107] |
| C (EC1.5>25 μM) | < 200% | COc1cccc(N2Cc3cccc(NC(=O)Cc4cccnc4)c3C2=O)c1 [Compound 116] |
| B (EC1-5 10-25 μM) | < 200% | O=C(Cc1cccnc1)Nc1cccc2c1C(=O)N(c1cccc(O[C@@H]3CCNC3)c1)C2 [Compound 103] |
| C (EC1.5>25 μM) | < 200% | COc1ccccc1N1Cc2cccc(NC(=O)Cc3cccnc3)c2C1=O [Compound 119] |
| C (EC1.5>25 μM) | < 200% | O=C(Cc1cccc(F)c1)Nc1cccc2c1C(=O)N(c1cccc(C(F)(F)F)c1)C2 [Compound 110] |
| C (EC1.5>25 μM) | < 200% | O=C(Nc1cccc2c1C(=O)N(c1cccc(C(F)(F)F)c1)C2)c1cccnc1 [Compound 121] |
| C (EC1.5>25 μM) | < 200% | Cc1ccccc1N1Cc2cccc(NC(=O)Cc3cccnc3)c2C1=O [Compound 114] |
| C (EC1.5>25 μM) | < 200% | O=C(Cc1cccnc1)Nc1cccc2c1C(=O)N(c1cccc(C(F)(F)F)c1)C2 [Compound 101] |
| C (EC1.5>25 μM) | < 200% | Cc1cccc(N2Cc3cccc(NC(=O)Cc4cccnc4)c3C2=O)c1 [Compound 115] |
| C (EC1.5>25 μM) | < 200% | O=C(Cc1cccnc1)Nc1cccc2c1C(=O)N(c1cccc(-c3ccncc3)c1)C2 [Compound 104] |

The next lines start with the molecule.

| SMILES | EC1.5 (concentration of test compound that results in 150% activation of SIRT1) | Emax |
| --- | --- | --- |
| O=C(Nc1cccc2c1C(=O)N(c1cccc(C(F)(F)F)c1)C2)c1cccc(N2CCCC2)n1 [Compound 136] | C (EC1.5>25 μM) | < 200% |
| O=C(Cc1ccc(F)cc1)Nc1cccc2c1C(=O)N(c1cccc(C(F)(F)F)c1)C2 [Compound 113] | C (EC1.5>25 μM) | < 200% |
| O=C(Nc1cccc2c1C(=O)N(c1cccc(C(F)(F)F)c1)C2)c1ccncn1 [Compound 127] | C (EC1.5>25 μM) | < 200% |
| O=C(CC1CCCC1)Nc1cccc2c1C(=O)N(c1cccc(C(F)(F)F)c1)C2 [Compound 112] | C (EC1.5>25 μM) | < 200% |
| O=C(Nc1cccc2c1C(=O)N(c1cccc(OC(F)(F)F)c1)C2)c1cccc(CN2CCOCC2)n1 [Compound 132] | A (EC1.5<10 μM) | < 200% |
| O=C(Nc1cccc2c1C(=O)N(c1cccc(C(F)(F)F)c1)C2)c1ccccn1 [Compound 120] | C (EC1.5>25 μM) | < 200% |
| O=C(Nc1cccc2c1C(=O)N(c1cccc(C(F)(F)F)c1)C2)c1ccncc1 [Compound 123] | B (EC1-5 10-25 μM) | < 200% |
| O=C(Nc1cccc2c1C(=O)N(c1cccc(C(F)(F)F)c1)C2)c1cccc(C2CCNC2)c1 (centres unmarked) [Compound 138] | A (EC1.5<10 μM) | > 200% |
| O=C(Nc1cccc2c1C(=O)N(c1cccc(C(F)(F)F)c1)C2)c1cccnn1 [Compound 134] | C (EC1.5>25 μM) | < 200% |
| O=C(Nc1cccc2c1C(=O)N(c1cccc(OC(F)(F)F)c1)C2)c1cccc(OCC(O)CO)n1 (centres unmarked) [Compound 131] | C (EC1.5>25 μM) | < 200% |
| CC(C)(C(=O)Nc1cccc2c1C(=O)N(c1cccc(C(F)(F)F)c1)C2)c1ccccc1 [Compound 106] | C (EC1.5>25 μM) | < 200% |
| O=C(Nc1cccc2c1C(=O)N(c1cccc(OC(F)(F)F)c1)C2)C1CCCC1 [Compound 108] | C (EC1.5>25 μM) | < 200% |
| CC1(C(=O)Nc2cccc3c2C(=O)N(c2cccc(C(F)(F)F)c2)C3)CCCCC1 [Compound 105] | C (EC1.5>25 μM) | < 200% |
| O=C(Nc1cccc2c1C(=O)N(c1cccc(C(F)(F)F)c1)C2)c1ccc(CN2CCCC2)cc1 [Compound 125] | A (EC1.5<10 μM) | < 200% |
| O=C(Nc1cccc2c1C(=O)N(c1cccc(C(F)(F)F)c1)C2)C1CCOCC1 [Compound 111] | A (EC1.5<10 μM) | < 200% |
| O=C(Nc1cccc2c1C(=O)N(c1cccc(C(F)(F)F)c1)C2)c1cccc(CN2CCOCC2)n1 [Compound 130, 6-(morpholinomethyl)-N-(3-oxo-2-(3-(trifluoromethyl)phenyl)isoindolin-4-yl)picolinamide] | A (EC1.5<10 μM) | < 200% |
| O=C(Nc1cccc2c1C(=O)N(c1cccc(C(F)(F)F)c1)C2)c1cccc(N2CCOCC2)n1 [Compound 135] | C (EC1.5>25 μM) | < 200% |
| O=C(Nc1cccc2c1C(=O)N(c1cccc(C(F)(F)F)c1)C2)c1cccc(OCC(O)CO)n1 (centres unmarked) [Compound 129, 6-(2,3-dihydroxypropoxy)-N-(3-oxo-2-(3-(trifluoromethyl)phenyl)isoindolin-4-yl)picolinamide] | C (EC1.5>25 μM) | < 200% |
| O=C(Cc1ccccc1F)Nc1cccc2c1C(=O)N(c1cccc(C(F)(F)F)c1)C2 [Compound 109] | C (EC1.5>25 μM) | < 200% |
